# What was measured:
# [1] = tested on: cerebellar granule neurons; assay: FM1-43 synaptic vesicle recycling in cultured cerebellar granule neurons, spontaneous activity; format: cell-based, rat
# Experimental: All of the major components of hormone-induced vesicle trafficking in astrocytes (actin fibers, myosin V (also referred to as myosin 5a and myo 5a), and recycling vesicles) are also present in nerve terminals. Therefore, the effects of thyroid hormone on synaptic vesicle recycling in the presynaptic nerve terminal were examined using myo5a-dependent synaptic vesicle (SV) recycling in cultured cerebellar granule neurons. In these experiments, rat granule neurons were grown on laminin-coated coverslips in the absence or presence of hormone and synaptic vesicle recycling was examined using FM1-43 (a styryl dye used in the art for studying endocytosis and exocytosis, e.g., in synaptic vesicle uptake and release assays; Molecular Probes, Inc. Eugene, Oreg.). […] In contrast, granule neurons grown in thyroid hormone supplemented medium released only 15-20% of the FM1-43 after six minutes of incubation and the hormone specificity of retention of FM1-43 in the “reserve pool” was identical to that determined for myo5a-dependent, endocytosis of p29 vesicles (D2p29 vesicles) in astrocytes.
# Cerebellar granule neurons were examined because thyroid hormone has a profound influence on granule neuron viability during cerebellar maturation (Xiao and Nikodem, 1998, Front. Biosci. 3: A52-57; Rabie et al., 1980, Brain Res. 190:409-414), and because of the effects of the loss of myo5a on synaptic vesicle homeostasis (Bridgman, 1999, J. Cell Biol. 146:1045-1060). […]
# Experiments were conducted to determine whether synaptic vesicle endocytosis could be altered by the hormone status of the neuron. […] The dye was then removed and the number, intensity and retention of the FM1-43 in random nerve terminals immediately after washing and after six minutes of autonomous activity were analyzed in paraformaldehyde fixed cells (Ryan, 1999, J. Neurosci.: 19:1317-1323). Fluorescence in single nerve terminals (ROI=7×7 pixels) and in an adjacent segment of the neuronal fiber were measured for 40-45 individual nerve terminals. […] Fluorescence intensity was determined using NIH Image software. The total FM1-43 fluorescence in a nerve terminal represents the sum of the dye-loaded synaptic vesicles in the readily releasable and the reserve pools.
# By allowing recurrent activity, the FM1-43 filled synaptic vesicles present in the readily releasable pool will be progressively depleted. […] By measuring the total FM1-43 content in random nerve terminals immediately after loading and at 30 second intervals for six minutes of spontaneous activity, the influence of hormones on the distribution of recycling synaptic vesicles between the readily releasable and reserve pools was estimated.
# [2] = target: T1, ΔTRα2 (T4 Inactivating Protein; TIP) (Rattus norvegicus, UniProt P63059); assay: rT3 binding displacement in nuclei-free extracts of cultured rat astrocytes; settings: ΔTRα2-containing nuclei-free astrocyte extracts; rT3 as ligand; read-out: Kd, displacement of rT3
# T1 construct: ΔTRα2 is encoded by exons 8-10 resulting in an approximately 25 kd protein
# T1 sequence (P63059 whole entry, stated change not applied): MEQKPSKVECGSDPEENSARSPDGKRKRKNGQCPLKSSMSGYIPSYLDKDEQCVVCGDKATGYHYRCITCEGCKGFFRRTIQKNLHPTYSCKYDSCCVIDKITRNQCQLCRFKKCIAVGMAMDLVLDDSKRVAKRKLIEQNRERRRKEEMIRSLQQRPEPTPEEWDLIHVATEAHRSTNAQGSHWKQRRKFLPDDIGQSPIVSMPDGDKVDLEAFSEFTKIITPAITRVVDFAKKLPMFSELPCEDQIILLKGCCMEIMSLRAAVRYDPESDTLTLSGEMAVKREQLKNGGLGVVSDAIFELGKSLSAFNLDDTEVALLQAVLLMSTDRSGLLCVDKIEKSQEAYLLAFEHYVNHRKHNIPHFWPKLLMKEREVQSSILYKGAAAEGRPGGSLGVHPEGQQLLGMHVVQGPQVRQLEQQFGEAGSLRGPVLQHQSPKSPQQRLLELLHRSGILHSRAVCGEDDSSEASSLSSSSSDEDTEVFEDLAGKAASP
# Experimental: The properties of thyroid hormone binding to non-nuclear components of the cell were examined using ΔTRα2 (T4 Inactivating Protein; TIP)-containing, nuclei-free extracts of cultured rat astrocytes. […] Both rT3 and T4 specifically displace rT3 with Kd's of approximately 0.3-0.5 nM.
# ΔTRα2 = target: T2, ΔTRα2 (Rattus norvegicus, UniProt P63059); assay: [125I]rT3 displacement from cell-free translated ΔTRα2; format: binding; settings: cell-free translated polypeptide
# T2 sequence (P63059 256-492): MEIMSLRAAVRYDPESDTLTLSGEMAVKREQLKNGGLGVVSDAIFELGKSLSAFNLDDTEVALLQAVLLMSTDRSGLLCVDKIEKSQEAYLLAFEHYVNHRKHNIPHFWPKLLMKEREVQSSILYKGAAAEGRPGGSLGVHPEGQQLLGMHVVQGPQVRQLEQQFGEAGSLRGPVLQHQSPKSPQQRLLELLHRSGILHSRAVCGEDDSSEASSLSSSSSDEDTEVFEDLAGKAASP
# Text: (§1) ΔTRα1 and ΔTRα2 polypeptides were synthesized by cell-free translation of appropriate segments of the rat ΔTRα1 and ΔTRα2 cDNA using the coupled transcription-translation kit from Promega® (TNT) according to the manufacturer's instructions.
# ΔTRα1 = ΔTRα1 (Rattus norvegicus, UniProt P63059); assay: [125I]rT3 displacement from cell-free translated ΔTRα1; format: binding; settings: cell-free translated polypeptide
# Text: as §1
# astrocytes = assay: subcellular distribution of immunoreactive TRα2-derived proteins in cultured astrocytes; format: cell-based, rat; settings: serum-free medium, treated 20 minutes, 0.1% bovine serum albumin carrier
# Text: The subcellular distribution of immunoreactive thyroid hormone receptor-derived proteins in primary brain cell cultures and in cultured astrocytes was examined. Primary brain cell cultures were fixed with 0.4% paraformaldehyde, permeabilized with Triton X-100®, and stained for TRα-derived proteins using specific antisera directed against the unique C-termini of TRα1 and TRα2 proteins, and visualized by staining with a secondary tagged antibody. Consistent with previous observations (Kolodny et al., 1985, Endocrinol. 117: 1848-1857), immunoreactive TRα1 proteins were found in the nuclei of astrocytes and neuronal cells. However, TRα2-derived proteins were not localized to the nucleus in either astrocytes or neurons, but appeared as donut shaped structures located throughout the astrocyte or as discreet punctate signals along neuronal fibers. This latter pattern is diagnostic for synapses in neuronal cultures (Wong et al., 1999, Neurosci. 89:221-233), and is consistent with the presence of ΔTRα2-derived protein in nerve terminals.
# The subcellular distribution of immunoreactive TRα2-derived proteins in cultured astrocytes was influenced by the presence of either T4 or rT3. In these experiments astrocytes were grown in serum-free medium, treated for 20 minutes with either […] or rT3, and fixed, permeabilized, and stained as described above. […]
structure (smiles),measurement,setting,value
"N[C@@H](Cc1cc(I)c(Oc2cc(I)c(O)c(I)c2)c(I)c1)C(=O)O [T4, thyroxine]",endocytosed FM1-43 retained,"[1]; acute treatment, after three minutes of spontaneous stimulation",> 90%
same,uptake of FM1-43,[1]; immediately after loading,No differences
same,Kd,[2],300 to 500 pM
same,Kd,ΔTRα2,300 to 1000 pM
same,Kd,ΔTRα1,300 to 1000 pM
same,subcellular distribution of TRα2-derived proteins,astrocytes,coalescence of the TRα2-derived proteins around the perinuclear space
